Experimental data reported in patent publication US6509163B1, “Methods of screening modulators of mammalian P2X7 purinergic receptors” (Glaxo Group Limited, priority 1997, dated 2003).
Read-outs that look alike come from different tables or passages of the source.

Experiments:
Type in all cases: cell-based
P2X7 receptor [1] = molecular target: T1, P2X7 receptor (Rattus norvegicus, UniProt Q64663); experiment: Whole-cell recordings of agonist-evoked currents in HEK293 cells transfected with rat P2X7 cDNA (Example 2); conditions: inward currents, brief application (0.5 to 2 s)
T1 construct: yielding a construct that encoded the entire P2X7 protein; expressed in transfected cells
T1 sequence (Q64663 1-595): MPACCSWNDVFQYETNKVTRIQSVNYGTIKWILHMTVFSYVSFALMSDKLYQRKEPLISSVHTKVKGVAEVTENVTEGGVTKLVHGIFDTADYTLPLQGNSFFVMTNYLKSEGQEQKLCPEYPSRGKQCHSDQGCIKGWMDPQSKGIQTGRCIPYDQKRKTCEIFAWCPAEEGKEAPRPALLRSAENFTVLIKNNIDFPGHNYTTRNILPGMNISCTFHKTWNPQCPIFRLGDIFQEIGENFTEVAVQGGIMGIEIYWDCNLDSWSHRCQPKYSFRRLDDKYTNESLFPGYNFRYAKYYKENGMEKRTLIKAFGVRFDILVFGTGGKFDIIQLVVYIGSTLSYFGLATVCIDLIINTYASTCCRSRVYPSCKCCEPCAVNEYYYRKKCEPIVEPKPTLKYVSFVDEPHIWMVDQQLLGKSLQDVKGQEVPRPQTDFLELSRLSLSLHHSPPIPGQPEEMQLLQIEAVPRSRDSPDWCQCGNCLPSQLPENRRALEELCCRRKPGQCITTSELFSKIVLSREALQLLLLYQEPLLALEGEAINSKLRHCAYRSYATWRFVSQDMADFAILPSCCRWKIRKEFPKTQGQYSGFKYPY

P2X7 receptor [2] = molecular target: T1, P2X7 receptor; experiment: as above; conditions: for EC50: read-out: EC50 (half-maximal concentration) for current; for agonist effect (evoking inward current): concentration 300 to 1000 μM
Protocol: (§1) Whole-cell recordings were obtained at room temperature from HEK293 cells transiently or stably transfected with P2X7 cDNA, from HEK293 cells transiently transfected with P2X7ΔC cDNA, and from J774A.1 cells (American Type Culture Collection, Rockville, Md.). Agonist were applied for periods of 1 to 3 s by a fast-flow U-tube delivery system (Fenwick et al, J. Physiol. (London) 331:577 (1982)). The internal pipette solution was 140 mM cesium-aspartate or potassium-aspartate, 20 mM NaCl, 10 mM EGTA, and 5 mM Hepes: normal external solution was 145 mM NaCl, 2 mM KCl, 2 mM CaCl2, 1 mM MgCl2, 10 mM Hepes, and 12 mM glucose. Low divalent external solution was nominally magnesium-free with 0.3 mM CaCl2. For cells expressing P2X7 receptors and J774 cells, concentration-response curves were constructed in low divalent solution by recording currents in response to 1-s applications of agonist at 8-min intervals with normal external solution present for 6 min before each application. This protocol was necessary to prevent the development of sustained inward currents. Lipofectin was used for transfection (Buell et al, EMBO J. 15:55 (1996)).
Reversal potentals (Erev) were obtained by application of ATP (300 μM) or BzATP (30 μM) while the membrane was held at various potentals or by application of voltage ramps from −120 to 30 or 50 mV. Permeability ratios from (Erev) were calculated by first computing α (=Pna/PK, where P is permeability) for internal (i) and external (o) concentrations [Na]i=20 mM, [Na]o=145 mM, [Ko]=0 mM, and [K]i=140 mM from α={[145/exp(Erev)F/RT −20]}/140 (where F is the Faraday, R is the gas constant, and T is the absolute temperature). Other PK/PNa values, when [X]o=145 mM, [Na]i=20 mM, [K]i=140 mM, and [Na]o=[K]o=[X]i=0 mM, were computed from PK/PNa={[exp (ErevF/RT) (20=140α)}/145. In order of size (FIG. 3C), X was cesium, methylamine, tris(hydroxymethyl)-aminomethane, tetraethylammonium, and N-methyl-D-glucamine. The internal solution also contained 10 mM EGTA and 5 mM Hepes. External solutions also contained 10 mM glucose and normal or low concentrations of divalent cations; pH was maintained at 7.3 with HCl, histidine, or Hepes as required, and the osmolarity of all solutions was 295 to 315.

hP2X7 receptor = molecular target: T2, hP2X7 receptor (Homo sapiens, UniProt Q99572); experiment: Whole-cell recordings in HEK293 cells transiently transfected with hP2X7 receptors (Example 3)
T2 construct: a clone containing the complete open reading frame of the hP2X7 receptor was constructed; expressed in transfected cells; host or cells: HEK293 (transient), pcDNA3
T2 sequence (Q99572 1-595): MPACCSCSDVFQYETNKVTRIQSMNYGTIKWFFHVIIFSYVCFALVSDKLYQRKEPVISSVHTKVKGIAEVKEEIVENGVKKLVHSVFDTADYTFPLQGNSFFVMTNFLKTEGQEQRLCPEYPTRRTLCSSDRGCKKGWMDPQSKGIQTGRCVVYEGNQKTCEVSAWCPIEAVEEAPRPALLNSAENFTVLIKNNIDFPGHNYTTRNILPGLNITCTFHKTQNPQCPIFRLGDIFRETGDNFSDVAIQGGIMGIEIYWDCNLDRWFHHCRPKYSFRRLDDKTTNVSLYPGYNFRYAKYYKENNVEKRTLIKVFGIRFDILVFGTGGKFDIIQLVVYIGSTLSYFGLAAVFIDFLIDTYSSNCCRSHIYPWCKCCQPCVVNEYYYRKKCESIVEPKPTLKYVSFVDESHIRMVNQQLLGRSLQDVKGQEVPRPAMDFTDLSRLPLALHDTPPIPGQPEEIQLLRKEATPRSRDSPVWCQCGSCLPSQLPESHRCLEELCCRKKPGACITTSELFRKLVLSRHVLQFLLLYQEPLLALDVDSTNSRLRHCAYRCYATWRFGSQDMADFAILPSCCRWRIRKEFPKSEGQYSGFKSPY
Protocol: (§2) Cell culture. HEK293 cells were transiently transfected with cDNA (1 μg/ml) and lipofectin dissolved in Optimem (GIBCO) placed into petri dishes containing four coverslips onto which cells were plated at a density of about 8×10^4/coverslip. Cells were washed 5 h later and normal DMEM applied. Electrophysiological studies or dye uptake measurements were carried out 18-49 h later. For each set of transfections, parallel experiments were performed on HEK cells transfected with cDNA encoding both rP2X7 and hP2X7 receptors.
(§3) Electrophysiological experiments. Whole-cell recordings were made using the EPC9 patch-clamp amplifier and Pulse acquisition programs (HEKA, Lambrecht, Germany). Patch pipettes (5-7 MΩ) contained (mM) CsCl or NaCl 154, EGTA 10, HEPES 5. The normal extracellular solution contained (mM) NaCg 147, KCl2, CaCl2 2, MgCl2 1, HEPES 10 and glucose 12, and the “low divalent” solution had no magnesium and 0.3 mM CaCl2. Agonists were delivered by U-tube delivery system; antagonists, when applied, were present in both superfusion and U-tube. Experiments were carried out at room temperature.

J774 cells = experiment: Whole-cell recordings of BzATP-evoked currents in J774 macrophage cells; conditions: three J774 cells; read-out: half-maximal inhibition of currents evoked by 30 μM BzATP
Protocol: as §1

rP2X7 receptor = molecular target: T3, rP2X7 receptor (Rattus norvegicus, UniProt Q64663); experiment: Whole-cell recordings in HEK293 cells transiently transfected with rP2X7 receptors (Example 3)
T3 construct: yielding a construct that encoded the entire P2X7 protein; expressed in transfected cells
T3 sequence (Q64663 1-595): T1 sequence (Q64663 1-595)
Protocol: as §2, §3

[3] = vs 30 μM BzATP, n=3, read-out: concentration causing half-maximal inhibition of currents
[4] = percentage of value in 1 mM magnesium

CSc1nc(N)c2ncn([C@@H]3O[C@H](COP(=O)(O)OP(=O)(O)OP(=O)(O)O)[C@@H](O)[C@H]3O)c2n1 [2MeSATP]
agonist order of potency (P2X7 receptor [1]): BzATP>>ATP>2MeSATP>ATP-γ-S>>ADP

Nc1ncnc2c1ncn2[C@@H]1O[C@H](COP(=O)(O)OP(=O)(O)O)[C@@H](O)[C@H]1O [ADP]
agonist order of potency (P2X7 receptor [1]): BzATP>>ATP>2MeSATP>ATP-γ-S>>ADP

Nc1ncnc2c1ncn2[C@@H]1O[C@H](COP(=O)(O)OP(=O)(O)OP(O)(O)=S)[C@@H](O)[C@H]1O [ATP-γ-S]
agonist order of potency (P2X7 receptor [1]): BzATP>>ATP>2MeSATP>ATP-γ-S>>ADP

Nc1ncnc2c1ncn2[C@@H]1O[C@H](COP(=O)(O)OP(=O)(O)OP(=O)(O)O)[C@@H](O)[C@H]1O [ATP]
EC50 (P2X7 receptor [2]; normal solution (2 mM CaCl2, 1 mM MgCl2), n=4): 115 ± 9 µM | EC50 (P2X7 receptor [2]; zero magnesium, n=7): 85 ± 8 µM | EC50 at hP2X7 relative to rP2X7 receptor (fold greater) (hP2X7 receptor): about 10 fold | agonist order of potency (P2X7 receptor [1]): BzATP>>ATP>2MeSATP>ATP-γ-S>>ADP

Nc1ncnc2c1ncn2[C@@H](C=O)O[C@@H](C=O)COP(=O)(O)OP(=O)(O)OP(=O)(O)O [Oxidized ATP]
block of currents evoked by 30 μM BzATP (P2X7 receptor [2]; 100 μM, cells preincubated for 1 to 2 hours, n=5): irreversibly blocked currents

Cc1nc(N=Nc2ccc(S(=O)(=O)O)cc2S(=O)(=O)O)c(COP(=O)(O)O)c(C=O)c1O [PPADS, pyridoxal 5-phosphate-6-azophenyl 2′4′-disulfonic acid]
IC50 (P2X7 receptor [2]; four HEK cells, read-out: half-maximal inhibition of currents evoked by 30 μM BzATP): 45 ± 8 µM | IC50 (J774 cells): 60 ± 9 µM | IC50 (rP2X7 receptor; [3]): 51 ± 4 µM

O=c1ccn([C@@H]2O[C@H](COP(=O)(O)OP(=O)(O)OP(=O)(O)O)[C@@H](O)[C@H]2O)c(=O)[nH]1 [UTP]
agonist effect (evoking inward current) (P2X7 receptor [2]): ineffective

Nc1ncnc2c1ncn2[C@@H]1O[C@H](CO)[C@@H](O)[C@H]1O [adenosine]
agonist effect (evoking inward current) (P2X7 receptor [2]): ineffective

NC(N)=NC(=O)c1nc(Cl)c(N2CCCCCC2)nc1N [hexamethylene amiloride]
blocking current evoked by 30 μM BzATP (P2X7 receptor [2]; 100 μM, n=6): ineffective

[Mg+2] [magnesium]
IC50 (hP2X7 receptor; currents evoked by 300 μM BzATP, read-out: concentration of magnesium causing half-maximal inhibition of the current): 212 µM | increase of currents on removal of external magnesium (hP2X7 receptor; [4]): 670±80% | IC50 (rP2X7 receptor; currents evoked by 30 μM BzATP, read-out: concentration of magnesium causing half-maximal inhibition of the current): 780 µM | increase of currents on removal of external magnesium (rP2X7 receptor; [4]): 420±84%

Cc1ccc(C(=O)Nc2ccc(S(=O)(=O)O)c3cc(S(=O)(=O)O)cc(S(=O)(=O)O)c23)cc1NC(=O)c1cccc(NC(=O)Nc2cccc(C(=O)Nc3cc(C(=O)Nc4ccc(S(=O)(=O)O)c5cc(S(=O)(=O)O)cc(S(=O)(=O)O)c45)ccc3C)c2)c1 [suramin]
inhibition at 300 µM (P2X7 receptor [2]; read-out: inhibition of currents evoked by 30 μM BzATP): 15 to 38% | IC50 (rP2X7 receptor; [3]): 78 ± 3 µM

Nc1ncnc2c1ncn2[C@@H]1O[C@H](COP(=O)(O)CP(=O)(O)OP(=O)(O)O)[C@@H](O)[C@H]1O [αβ-methylene ATP]
agonist effect (evoking inward current) (P2X7 receptor [2]): ineffective

Nc1ncnc2c1ncn2[C@@H]1O[C@H](COP(=O)(O)OP(=O)(O)CP(=O)(O)O)[C@@H](O)[C@H]1O [βγ-methylene ATP]
agonist effect (evoking inward current) (P2X7 receptor [2]): ineffective
